Test results from patent US10947222B2, “Indole derivatives useful as inhibitors of diacylglyceride O-acyltransferase 2” (Merck Sharp & Dohme Corp., priority 2016, dated 2021).

Target: human DGAT2 (hDGAT2) (Homo sapiens (Human), UniProt Q96PD7)
Test: DGAT2 enzymatic activity assay (triolein formation, LC/MS/MS)
Format: biochemical
Conditions: Sf-9 membrane prep expressing hDGAT2; 25 μM diolein, 10 μM oleoyl-CoA; triolein by LC/MS/MS
Description: Sf-9 insect cells were maintained in Grace's insect cell culture medium with 10% heated-inactivated fetal bovine serum, 1% Pluronic F-68 and 0.14 μg/ml Kanamycine sulfate in Erlenmeyer flasks at 28° C. in a shaker incubator. After infection with untagged baculovirus expressing human DGAT2 (hDGAT2) at multiplicity of infection (MOI) 0.1 for 48 hours, cells were harvested. Cell pellets were suspended in buffer containing 10 mM Tris-HCl (pH 7.5), 1 mM EDTA (pH 8.0), 250 mM sucrose and Complete Protease Inhibitor Cocktail (Roche Diagnostics Corp., Indianapolis, Ill.), and sonicated on ice. Membrane fractions were isolated by ultracentrifugation (100,000×g pellet), resuspended in the same buffer, and frozen (−80° C.) for later use. The protein concentration was determined with the BCA Protein Assay kit (Pierce Biotechnology Inc., Rockford, Ill.). Expression of protein levels was analyzed by immunoblotting with goat polyclonal DGAT2 antibody C-15 and donkey anti-goat IgG HRP (Santa Cruz Biotechnology, Inc., Santa Cruz, Calif.) followed by detection with ECL reagent (GE Healthcare, Piscataway, N.J.).
LC/MS/MS analyses were performed using Thermal Fisher's LX4-TSQ Vantage system. This system consists of an Agilent binary high-performance liquid chromatography (HPLC) pumps and a TSQ Vantage triple quadrupole MS/MS instrument. For each sample, 2 μL samples from the top organic layer of in-plate liquid-liquid extraction were injected onto a Thermo Betabasic C4 column (2.1 mm×20 mm, 5 μm particle size). The samples were then eluted using the following conditions; mobile phase: methanol/water with 0.1% ammonium format=92/8 (v/v), flow rate: 1 mL/min, temperature: 25 C. Data was acquired in positive mode using a heated electrospray ionization (HESI) interface. The operational parameters for the TSQ Vantage MS/MS instrument were a spray voltage of 3000 V, capillary temperature of 280° C., vaporizer temperature 400° C., shealth gas 60 arbitrary unit, Aux gas 40 arbitrary units, S-lens 113 and collision gas 0.16 Pascals. […] (SRM) chromatograms of triolein (Q1:902.9>Q3:602.3) and internal standard (Q1:902.9>Q3:602.3) were collected for 40 sec. The peak area was integrated by Xcalibur Quan software. The ratio between the triolein generated in the reaction and spiked in internal standard was used to generate percentage inhibition and IC50 values. Compound percentage inhibition was calculated by the following formula: Inhibition %/=1−[(compound response−low control)/(high control−low control)]×100%. Potent compounds were titrated and IC50 were calculated by 4 parameter sigmoidal curve fitting formula.
DGAT2 activity was determined by measuring the amount of enzymatic product triolein (1,2,3-Tri(cis-9-octadecenoyl)glycerol) using the membrane prep mentioned above. The assay was carried out in deep well 384 plates in a final volume of 40 μL at rt. The assay mixture contained the following: assay buffer (100 mM Tris.Cl, pH 7.0, 20 mM MgCl2, 5% ethanol), 25 μM of diolein, 10 μM of oleoyl-CoA and 10 ng/μL of DGAT2 membrane.

Chain of human DGAT2 (hDGAT2) (Q96PD7 whole entry): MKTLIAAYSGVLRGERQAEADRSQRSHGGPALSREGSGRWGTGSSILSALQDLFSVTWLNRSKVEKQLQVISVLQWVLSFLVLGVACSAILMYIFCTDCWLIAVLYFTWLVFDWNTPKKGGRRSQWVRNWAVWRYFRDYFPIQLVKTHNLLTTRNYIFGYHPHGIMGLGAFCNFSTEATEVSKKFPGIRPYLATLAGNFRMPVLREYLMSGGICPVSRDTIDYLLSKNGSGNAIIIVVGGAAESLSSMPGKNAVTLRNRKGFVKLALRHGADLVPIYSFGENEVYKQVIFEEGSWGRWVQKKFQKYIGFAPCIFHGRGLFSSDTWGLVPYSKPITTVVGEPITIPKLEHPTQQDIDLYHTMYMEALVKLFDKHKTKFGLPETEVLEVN

Row | SMILES | IC50 [nM]
1 | COC(=O)c1cc(-c2cn(-c3ccc(F)cc3)c3cc(C(=O)NC4CCS(=O)(=O)C4)ccc23)cs1 (racemic) [Example 60, methyl 4-{6-[(1,1-dioxidotetrahydrothiophen-3-yl)carbamoyl]-1-(4-fluorophenyl)-1H-indol-3-yl}thiophene-2-carboxylate (racemic)] | 175
2 | O=C(NC1CCS(=O)(=O)C1)c1ccc2c(-c3cccc(C4CC4)c3)cn(-c3ccc(F)cc3)c2c1 (racemic) [Example 46, 3-(3-cyclopropylphenyl)-N-(1,1-dioxidotetrahydrothiophen-3-yl)-1-(4-fluorophenyl)-1H-indole-6-carboxamide (racemic)] | 2.1
3 | Cn1ccc2cc(-c3cn(-c4ccc(F)cc4)c4cc(C(=O)NC5CCS(=O)(=O)C5)ccc34)ccc21 (racemic) [Example 51, N-(1,1-dioxidotetrahydrothiophen-3-yl)-1-(4-fluorophenyl)-1′-methyl-1H,1′H-3,5′-biindole-6-carboxamide (racemic)] | 102
4 | O=C(NC1CCS(=O)(=O)C1)c1ccc2c(-c3ccc(OC(F)F)cc3)cn(-c3ccc(F)cc3)c2c1 (racemic) [Example 57, 3-[4-(difluoromethoxy)phenyl]-N-(1,1-dioxidotetrahydrothiophen-3-yl)-1-(4-fluorophenyl)-1H-indole-6-carboxamide (racemic)] | 562
5 | C[C@H](NC(=O)c1ccc2c(-c3ccccc3Cl)cn(-c3ccc(F)cc3)c2c1)c1ccc(C(F)(F)F)nc1 [Example 6, (S)-3-(2-chlorophenyl)-1-(4-fluorophenyl)-N-(1-(6-(trifluoromethyl)pyridin-3-yl)ethyl)-1H-indole-6-carboxamide] | 476
6 | O=C(NC1CCS(=O)(=O)C1)c1ccc2c(-c3cccc(C4CC4)c3)cn(-c3ncc(F)cn3)c2c1 (single isomer, unassigned; enantiomer a) [Example 17-A, 3-(3-cyclopropylphenyl)-N-(1,1-dioxidotetrahydrothiophen-3-yl)-1-(5-fluoropyrimidin-2-yl)-1H-indole-6-carboxamide (enantiomer A)] | 3.3
7 | CC1(NC(=O)c2ccc3c(-c4cncc(OC(F)F)c4)cn(-c4ccc(F)cc4)c3c2)CCS(=O)(=O)C1 (racemic) [Example 25, 3-(5-(difluoromethoxy)pyridin-3-yl)-1-(4-fluorophenyl)-N-(3-methyl-1,1-dioxidotetrahydrothiophen-3-yl)-1H-indole-6-carboxamide (racemic)] | 0.77
8 | CC1(NC(=O)c2ccc3c(-c4ccccc4Cl)cn(-c4ncc(F)cn4)c3c2)CCS(=O)(=O)C1 (single isomer, unassigned; enantiomer b) [Example 15-B, 3-(2-chlorophenyl)-1-(5-fluoropyrimidin-2-yl)-N-(3-methyl-1,1-dioxidotetrahydrothiophen-3-yl)-1H-indole-6-carboxamide (enantiomer B, slow)] | 28
9 | O=C(NC1CCS(=O)(=O)C1)c1ccc2c(-c3ccc(-n4cccn4)cc3)cn(-c3ccc(F)cc3)c2c1 (racemic) [Example 56, N-(1,1-dioxidotetrahydrothiophen-3-yl)-1-(4-fluorophenyl)-3-[4-(1H-pyrazol-1-yl)phenyl]-1H-indole-6-carboxamide (racemic)] | 117
10 | Cc1ccnc(-c2cn(-c3ccc(F)cc3)c3cc(C(=O)NC4CCS(=O)(=O)C4)ccc23)c1 (racemic) [Example 23, N-(1,1-dioxidotetrahydrothiophen-3-yl)-1-(4-fluorophenyl)-3-(4-methylpyridin-2-yl)-1H-indole-6-carboxamide (racemic)] | 117
11 | O=C(NC1CCS(=O)(=O)C1)c1ccc2c(-c3ccccn3)cn(-c3ccc(F)cc3)c2c1 (racemic) [Example 22, N-(1,1-dioxidotetrahydrothiophen-3-yl)-1-(4-fluorophenyl)-3-(pyridin-2-yl)-1H-indole-6-carboxamide (racemic)] | 664
12 | O=C(NC1CCS(=O)(=O)C1)c1ccc2c(-c3ccccc3OC(F)F)cn(-c3ccc(F)cc3)c2c1 (racemic) [Example 42, 3-[2-(difluoromethoxy)phenyl]-N-(1,1-dioxidotetrahydrothiophen-3-yl)-1-(4-fluoropheny)-1H-indole-6-carboxamide (racemic)] | 108
13 | CC1(NC(=O)c2ccc3c(-c4ccccc4Cl)cn(-c4ncc(F)cn4)c3c2)CCS(=O)(=O)C1 (single isomer, unassigned; enantiomer a) [Example 15-A, 3-(2-chlorophenyl)-1-(5-fluoropyrimidin-2-yl)-N-(3-methyl-1,1-dioxidotetrahydrothiophen-3-yl)-1H-indole-6-carboxamide (enantiomer A, fast)] | 78
14 | Cc1c(-c2cccc(OC(F)F)c2)c2ccc(C(=O)NC3(C)CCS(=O)(=O)C3)cc2n1-c1ccc(F)cc1 (racemic) [Example 28, 3-(3-(difluoromethoxy)phenyl)-1-(4-fluorophenyl)-2-methyl-N-(3-methyl-1,1-dioxidotetrahydrothiophen-3-yl)-1H-indole-6-carboxamide (racemic)] | 17
15 | O=C(NC1CCS(=O)(=O)C1)c1ccc2c(-c3cccc(Cl)c3Cl)cn(-c3ccc(F)cc3)c2c1 (racemic) [Example 44, 3-(2,3-dichlorophenyl)-N-(1,1-dioxidotetrahydrothiophen-3-yl)-1-(4-fluorophenyl)-1H-indole-6-carboxamide (racemic)] | 19
16 | COC(=O)c1cccc(-c2cn(-c3ccc(F)cc3)c3cc(C(=O)NC4CCS(=O)(=O)C4)ccc23)c1 (racemic) [Example 32, methyl 3-{6-[(1,1-dioxidotetrahydrothiophen-3-yl)carbamoyl]-1-(4-fluorophenyl)-1H-indol-3-yl}benzoate (racemic)] | 3.2
17 | CC1(NC(=O)c2ccc3c(-c4cccc(C5CC5)c4)cn(-c4ccc(F)cn4)c3c2)CCS(=O)(=O)C1 (single isomer, unassigned; enantiomer b) [Example 12-B, 3-(3-cyclopropylphenyl)-1-(5-fluoropyridin-2-yl)-N-(3-methyl-1,1-dioxidotetrahydrothiophen-3-yl)-1H-indole-6-carboxamide (enantiomer B)] | 0.73
18 | O=C(NC1CCS(=O)(=O)C1)c1ccc2c(-c3cccc(OC(F)F)c3)cn(-c3ccc(F)cc3)c2c1 (single isomer, unassigned; enantiomer a) [Example 27-A, 3-(3-(difluoromethoxy)phenyl)-N-(1,1-dioxidotetrahydrothiophen-3-yl)-1-(4-fluorophenyl)-1H-indole-6-carboxamide (enantiomer A)] | 0.52
19 | O=C(NC1CCS(=O)(=O)C1)c1ccc2c(-c3cc(Cl)ccn3)cn(-c3ccc(F)cc3)c2c1 (racemic) [Example 21, 3-(4-chloropyridin-2-yl)-N-(1,1-dioxidotetrahydrothiophen-3-yl)-1-(4-fluorophenyl)-1H-indole-6-carboxamide (racemic)] | 252
20 | O=C(NC1CCS(=O)(=O)C1)c1ccc2c(-c3cccc(OC(F)F)c3)cn(-c3ncc(F)cn3)c2c1 (single isomer, unassigned; enantiomer a) [Example 19-A, 3-(3-(difluoromethoxy)phenyl)-N-(1,1-dioxidotetrahydrothiophen-3-yl)-1-(5-fluoropyrimidin-2-yl)-1H-indole-6-carboxamide (enantiomer A)] | 1.6
21 | CC1(NC(=O)c2ccc3c(-c4cccc(OC(F)F)c4)cn(-c4ccc(F)cn4)c3c2)CCS(=O)(=O)C1 (single isomer, unassigned; enantiomer a) [Example 10-A, 3-(3-(difluoromethoxy)phenyl)-1-(5-fluoropyridin-2-yl)-N-(3-methyl-1,1-dioxidotetrahydrothiophen-3-yl)-1H-indole-6-carboxamide (enantiomer A)] | 0.94
22 | CC1(NC(=O)c2ccc3c(-c4cccc(C5CC5)c4)cn(-c4ccc(F)cn4)c3c2)CCS(=O)(=O)C1 (single isomer, unassigned; enantiomer a) [Example 12-A, 3-(3-cyclopropylphenyl)-1-(5-fluoropyridin-2-yl)-N-(3-methyl-1,1-dioxidotetrahydrothiophen-3-yl)-1H-indole-6-carboxamide (enantiomer A)] | 0.79
